# Data: patent US11133139B2, “Use of 1-chloro-2,3,3,3-tetrafluoropropene for isolating or extinguishing electric arcs” (Arkema France, priority 2018, dated 2021)
# Experiments:
# [1] = Dielectric strength measurement in a homogeneous field, relative to SF6; format: physicochemical
# Procedure: The results are as follows, expressed in a relative manner as percentage of the dielectric strength of the reference gas SF6: • HCFO-1224yd(Z): 178%.
# Its dielectric strength values (with an interelectrode distance of 12 mm) is then as follows, still with respect to SF6: • HCFO-1224yd(Z) at 17° C.: 159%.
# [2] = Toxicity (statement, no method)
# [3] = Flammability, thermal stability, saturated vapor pressure / condensation; format: physicochemical
# [4] = prior art statement; cited from earlier work
# [5] = prior art statement; cited from earlier work; remark: listed apart in the source
compound,measurement,setting,value
"O=C=O [CO2, carbon dioxide, reference compound]",dielectric strength as % of that of SF6,"[1]; −15° C., 1.14 bar",51%
"FC(=CCl)C(F)(F)F [HCFO-1224yd(Z), 1-chloro-2,3,3,3-tetrafluoropropene]",dielectric strength as percentage of the dielectric strength of the reference gas SF6,"[1]; 20° C., 1.3 bar, homogeneous field, interelectrode distance 12 mm",178%
same,dielectric strength with respect to SF6,"[1]; pure state, 17° C., 1.14 bar, interelectrode distance 12 mm",159%
same,toxicity,[2],very low level of toxicity
same,flammability,[3],nonflammable
same,thermal stability,[3],thermally stable
same,minimum temperature of use in the pure state without condensation,[3]; pressure of 1.14 bar,17 °C
same,saturated pressure,[3]; −15° C.,0.29 bar
"FS(F)(F)(F)(F)F [SF6, sulfur hexafluoride]",toxicity (background),[4],nontoxic to man and animals
same,flammability (background),[5],nonflammable
FC(F)(F)I [trifluoroiodomethane],toxicity (background),[4],"category-3 carcinogenic, mutagenic and reprotoxic substances"
